Like-named read-outs stand apart in the source and are kept apart here.
Assays:
[1] = system: human small cell lung cancer SBC-3 cells; experiment: Confocal laser scanning microscopy of intracellular localization; assay type: cell-based; settings: 10 μg mL−1
Procedure: FIG. 4 illustrates CLSM images of human small cell lung cancer SBC-3 cells incubated with ADR and PEG-p(Asp-Hyd-ADR) micelles (10 μg mL^−1). […] A series of optical sections was stacked (Z-stacked) by moving the focal plane of the instrument step-by-step through the depth of the cell.

tumor [2] = experiment: Cancer treatment efficacy and toxicity in tumor-bearing mice (Table 2, therapeutic window); settings: for Complete Cure / Toxic Death: mice; for Complete Cure: cured/animals; for Toxic Death: deaths/animals
Procedure: (§1) Cancer treatment efficacy of the pH-sensitive micelles was evaluated by comparing the therapeutic windows of small molecule drugs (doxorubicin) and the doxorubicin-conjugated micelles.
(§2) The CDF1 mice (female, n=6), when the tumor volume reached about 100 mm^3, were injected with DOX or the micelles in a volume of 0.1 mL/10 g body weight for the experiments. The dose was either 10 mg/kg for DOX or the micelles (DOX equivalent).
(§3) Cancer treatment efficacy of the pH-sensitive micelles was evaluated by comparing the therapeutic windows of small molecule drugs (doxorubicin) and the doxorubicin-conjugated micelles. Therapeutic windows were determined based on the ratio of ED50 to TD.

[3] = system: human small cell lung cancer SBC-3 cells; settings: different ADR concentrations and exposure times
Source text: As a system releasing bioactive molecules, the micelles are required to maintain the ability of the loaded ADR to suppresses cell growth by binding with DNA strands in the cell nucleus.

tumor [4] = settings: mouse, in vivo
Procedure: as §1, §2, §3

[5] = DMEM with 10% fetal bovine serum, 24 hours, 100 μg mL−1 ADR equivalent, excitation 485 nm
[6] = Biodistribution and plasma levels in tumor-bearing mice; settings: after 10 hours; 10 mg/kg, CDF1 mice
Procedure: as §2

Compound	fluorescence intensity in cells ([1]; after 1 hour exposure)	fluorescence intensity in cells ([1]; after 24 hours incubation)	intracellular localization of fluorescence ([1]; after 24 hours incubation)	therapeutic window compared to standard doxorubicin administration (tumor [2]; based on treatment-to-control (T/C) ratio, ratio of ED50 to TD)	Complete Cure (tumor [2]; dose 5 mg/kg)	Complete Cure (tumor [2]; dose 10 mg/kg)	Complete Cure (tumor [2]; dose 20 mg/kg)	Complete Cure (tumor [2]; dose 40 mg/kg)	growth-inhibition effect [3]	Weight change on day 30 (%) (tumor [4]; 5 mg/kg)	Weight change on day 30 (%) (tumor [4]; 10 mg/kg)	fluorescence intensity at 590 nm [5]	Toxic Death (tumor [2]; dose 5 mg/kg)	Toxic Death (tumor [2]; dose 10 mg/kg)	dose remained in the blood [6]
poly(ethylene glycol)poly(aspartate-hydrazone-adriamycin) [DOX-Micelle]	no such increase was detected	considerable fluorescence change	dot-shaped within the cytoplasm	broader therapeutic window	0/6	0/6	2/6	3/6	gradually approach those of free ADR	–	–	–	–	–	–
COc1cccc2c1C(=O)c1c(O)c3c(c(O)c1C2=O)C[C@@](O)(C(=O)CO)C[C@@H]3O[C@H]1C[C@H](N)[C@H](O)[C@H](C)O1 [DOX, doxorubicin]	increase in fluorescence intensity	–	only accumulated in cell nuclei	–	0/6	1/6	–	–	–	−13.35 ± 0.59	−16.84 ± 1.26	intense fluorescence	0/6	0/6	almost none
